Positions count from the first letter of the chain named. Read-outs that look alike come from different tables or passages of the source. Values belong to the compound of their own block, whether it stands above or below them.
What was measured:
hyrax BLVRB = target: T1, hyrax BLVRB; assay: NMR titration ([…]-HSQC); design: species or system Procavia capensis; details: holo form, bis-tris pH 6.5, 20 °C, 900 MHz
T1 construct: pET21

human BLVRB [1] = target: T2, human BLVRB (Homo sapiens, UniProt P30043); assay: NMR titration ([…]-HSQC); format: binding
T2 construct: pET21
T2 sequence (P30043 2-206): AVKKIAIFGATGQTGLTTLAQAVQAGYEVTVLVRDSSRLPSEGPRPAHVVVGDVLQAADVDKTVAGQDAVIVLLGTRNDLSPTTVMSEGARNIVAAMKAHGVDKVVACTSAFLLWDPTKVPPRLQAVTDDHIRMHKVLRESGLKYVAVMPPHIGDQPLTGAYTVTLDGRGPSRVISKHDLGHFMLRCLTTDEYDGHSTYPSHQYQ

human BLVRB [2] = target: T2, human BLVRB; assay: NMR titration ([…]-HSQC); details: bis-tris pH 6.5; weak binding
human BLVRB [3] = target: T2, human BLVRB; assay: isothermal titration calorimetry; format: binding
Excerpt: (§1) isothermal titration calorimetry on human BLVRB

human BLVRB [4] = target: T3, human BLVRB (Homo sapiens, UniProt P30043, T164S); assay: isothermal titration calorimetry; format: binding
T3 construct: pET21
T3 sequence (P30043 2-206 T164S): T2 sequence (P30043 2-206) with T163S
Excerpt: as §1

Aedes aegypti BLVRB = target: T4, Aedes aegypti BLVRB (Aedes aegypti, UniProt Q16FC8); assay: NMR spectra ([…]-HSQC) apo versus NADP+; format: binding; details: complex unstable over hours at room temperature
T4 construct: gene 5565330
T4 sequence (Q16FC8 1-205): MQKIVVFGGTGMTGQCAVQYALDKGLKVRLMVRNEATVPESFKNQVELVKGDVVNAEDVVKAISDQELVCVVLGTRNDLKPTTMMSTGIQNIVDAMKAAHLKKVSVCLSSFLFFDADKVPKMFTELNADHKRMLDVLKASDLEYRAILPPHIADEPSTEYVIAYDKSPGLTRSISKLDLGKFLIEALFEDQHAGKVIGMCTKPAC

- Kd (hyrax BLVRB; NADP+ 1 mM, read-out: binding affinity): 19.5 ± 7.4 µM
- Kd (human BLVRB [1]; read-out: binding affinity): 26.8 ± 9.1 µM
Compound: C=CC1=C(C)/C(=C/c2[nH]c(Cc3[nH]c(/C=C4\NC(=O)C(C)=C4CCC(=O)O)c(CCC(=O)O)c3C)c(C)c2C=C)NC1=O (mixture of isomers) [bilirubin-β]

Compound: C=CC1=C(C)/C(=C/c2[nH]c(Cc3[nH]c(/C=C4\NC(=O)C(C)=C4C=C)c(C)c3CCC(=O)O)c(CCC(=O)O)c2C)NC1=O [BR-α]
- binding affinity (human BLVRB [2]): a titration of human BLVRB with BR-α revealed an expected weak binding affinity

- Kd (hyrax BLVRB; read-out: Kd): 496 ± 22.6 µM
- Kd (human BLVRB [1]; read-out: Kd): 283 ± 13.5 µM
Compound: Cc1cc2nc3c(=O)[nH]c(=O)nc-3n(C[C@H](O)[C@H](O)[C@H](O)COP(=O)(O)OP(=O)(O)OC[C@H]3O[C@@H](n4cnc5c(N)ncnc54)[C@H](O)[C@@H]3O)c2cc1C [FAD]

- Kd (human BLVRB [3]; read-out: Kd (nM) with NADPH): 130 ± 10 nM
- Kd (human BLVRB [4]; read-out: Kd (nM) with NADPH): 110 ± 10 nM
Compound: NC(=O)C1=CN([C@@H]2O[C@H](COP(=O)(O)OP(=O)(O)OC[C@H]3O[C@@H](n4cnc5c(N)ncnc54)[C@H](OP(=O)(O)O)[C@@H]3O)[C@@H](O)[C@H]2O)C=CC1 [NADPH]

- Kd (human BLVRB [3]; read-out: Kd (nM) with NADP^+): 190 ± 5 nM
- Kd (human BLVRB [4]; read-out: Kd (nM) with NADP^+): 130 ± 10 nM
Compound: NC(=O)c1ccc[n+]([C@@H]2O[C@H](COP(=O)(O)OP(=O)(O)OC[C@H]3O[C@@H](n4cnc5c(N)ncnc54)[C@H](OP(=O)(O)O)[C@@H]3O)[C@@H](O)[C@H]2O)c1 [NADP^+]
- NMR spectra (15N-HSQC) apo versus NADP+ (Aedes aegypti BLVRB): gave rise to good dispersion upon NADP^+ binding
